This is an account of results in US20250241897A1, “COMPOSITION FOR ERADICATING HELICOBACTER PYLORI” (HK INNO.N CORPORATION, priority 2018, published 2025).

The structures appear in SMILES notation.

The test system of one data set is intragastric pH. The experiment in a line: Clinical study 1, Cohort 2: 24-hour intragastric pH measurement on repeated co-administration. Format: in vivo, human. Conditions: with amoxicillin/clarithromycin. An excerpt: To identify an effect of eradicating Helicobacter pylori in the present invention, a clinical study was designed in accordance with a randomized, open-label, active-controlled, parallel and multiple-dose design. A total of 221 patients were subjected to screening for this study. Out of them, 36 patients were registered thereto and the completed clinical results were obtained from 34 patients.
Particularly, the 36 patients above were divided into three patient groups (T1, T2 and R) and the clinical study was performed accordingly. […]
The T1 group was repeatedly given 50 mg of CJ-12420 and 1000 mg of amoxicillin/500 mg of clarithromycin twice a day for seven days; the T2 group was repeatedly given 100 mg of CJ-12420 and 1000 mg of amoxicillin/500 mg of clarithromycin twice a day for seven days; and the R group was repeatedly given 40 mg of pantoprazole and 1000 mg of amoxicillin/500 mg of clarithromycin twice a day for seven days. An intragastric pH was measured from all the subjects on Day 1 for 24 hours, and the intragastric pH was also measured for 24 hours on Day 1 and Day 7 of repeated administration. Also, a negative conversion rate was calculated upon a follow-up visit paid by subjects who were identified to be H. pylori positive on the UBT test during screening, and stability evaluation was performed according to a predetermined schedule. […]

The nature of data set [1]: Clinical study 1, Cohort 1: pharmacokinetic interaction of tegoprazan and amoxicillin/clarithromycin, multiple dose. Format: in vivo, human. How it is done:
To evaluate pharmacokinetic interaction of multiple-dose administration of single and combination of tegoprazan and amoxicillin/clarithromycin, a clinical study was designed in accordance with a randomized, open-label, and multiple-dose design.
A total of 24 subjects who had been determined eligible to participate in the study were randomly assigned in a 1:1 ratio to each one of the two groups. Each randomly-assigned group was administered with investigational medical products as arranged during each intervention period and underwent a clinical study as designed. In consideration of the half-life of each product, a 14-day wash-out period was given between the intervention periods.
A total of 24 subjects were divided into group 1 and group 2. During the first intervention period, subjects of group 1 (12 person) were repeatedly administered with 100 mg of tegoprazan twice a day for four days and administered once a day on the fifth day on which a pharmacokinetic clinical study was conducted. During the second intervention period after a 14-day wash-out period, they were repeatedly administered with 1000 mg of amoxicillin and 500 mg of clarithromycin twice a day for four days and administered once a day on the fifth day. During the third intervention period after a 14-day wash-out period, they were repeatedly administered with 100 mg of tegoprazan, 1000 mg of amoxicillin, and 500 mg of clarithromycin twice a day for six days and administered once a day on the seventh day. Following the last dose of each intervention period, pharmacokinetic blood samples were collected for 17 times over 72 hours in the first period, 14 times over 48 hours in the second period, and 19 times over 120 hours in the third period.
Drugs were administered to subjects of group 2 (12 person) in the reverse order to the way the study was conducted on group 1 in the first and second intervention periods and in the same order in the third intervention period. Pharmacokinetic blood samples were collected in the same manner as group 1.
The average plasma concentrations of tegoprazan, clarithromycin, and amoxicillin were measured and time-based plasma concentration and time-based drug concentration patterns were observed when tegoprazan was repeatedly administered alone, amoxicillin/clarithromycin were repeatedly administered and tegoprazan, amoxicillin, and clarithromycin were repeatedly administered in combination.
Pharmacokinetics of tegoprazan, amoxicillin, and clarithromycin were evaluated. Descriptive statistics of pharmacokinetic evaluation parameters were presented. Point estimates for geometric mean ratio between each group and 90% confidence interval were calculated from the log-converted primary pharmacokinetic evaluation parameters by using a linear mixed effect model.

The mark [2] stands for this setting: tegoprazan 100 mg twice a day, combination with amoxicillin 1000 mg/clarithromycin 500 mg versus alone.
Where [3] appears, read: clarithromycin 500 mg with amoxicillin 1000 mg twice a day, with versus without tegoprazan 100 mg.

Regarding `Cc1nc2c(OC3CCOc4cc(F)cc(F)c43)cc(C(=O)N(C)C)cc2[nH]1` (centres unmarked) [Tegoprazan, 4-[(5,7-difluoro-3,4-dihydro-2H-chromene-4-yl)oxy]-N,N,2-trimethyl-1H-benzimidazole-6-carboxamide], in the data set with intragastric pH, the “time to increase pH to 6 or more right after the administration” value was “two”. Moreover, in data set [1] (setting [2]), the “increase of AUC of tegoprazan when administered in combination with amoxicillin/clarithromycin” value is 2.70 times and the “increase of Cmax of tegoprazan when administered in combination with amoxicillin/clarithromycin” value was found to be 2.24 times.
Consider `CC[C@H]1OC(=O)[C@H](C)[C@@H](O[C@H]2C[C@@](C)(OC)[C@@H](O)[C@H](C)O2)[C@H](C)[C@@H](O[C@@H]2O[C@H](C)C[C@H](N(C)C)[C@H]2O)[C@](C)(OC)C[C@@H](C)C(=O)[C@H](C)[C@@H](O)[C@]1(C)O` [clarithromycin, (3R,4S,5S,6R,7R,9R,11R,12R,13S,14R)-6-[(2S,3R,4S,6R)-4-(dimethylamino)-3-hydroxy-6-methyloxane-2-yl]oxy-14-ethyl-12,13-dihydroxy-4-[(2R,4R,5S,6S)-5-hydroxy-4-methoxy-4,6-dimethyloxane-2-yl]oxy-7-methoxy-3,5,7,9,11,13-hexamethyl-oxacyclotetradecane-2,10-dione, reference compound], for which, in data set [1] (setting [3]), the “AUC of clarithromycin when administered in combination with tegoprazan” value was “showed a tendency to increase” and the “Cmax of clarithromycin when administered in combination with tegoprazan” value is “showed a tendency to increase”.
